Test results from patent publication US20060264362A1, “Method of modulating smooth muscle cell functioning by modulating sphingosine kinase mediated signalling” (Medvet Science Pty. Ltd., priority 2003, published 2006).
Entries after “also recorded” stand apart in the source; their conditions may differ.

How the values were obtained:
[1] = test system: resistance arteries; experiment: SNP (NO)-induced dilations in preconstricted resistance arteries; type: cell-based, hamsters; conditions: for preconstriction level (diameter): 1 μmol/L S1P or 0.3 μmol/L NE
Source text: (§1) The care of the animals and the experimental procedures were in accordance with German animal protection laws. The preparation of the vessels and the technique of calcium (fura 2) and diameter measurements were previously described (Bolz et al., 1999, supra; Bolz S S, Fisslthaler B, Pieperhoff S et al., FASEB J. 2000;14:255-260). Briefly, RA (maximal outer diameter 180-250 μm) from gracilis muscle of female hamsters were cannulated with micropipettes and studied at 45 mmHg transmural pressure. Fura 2 was alternatingly excited at 340 or 380 nm. The ratio F340nm/F380nm at 510 nm was calculated after subtraction of the background fluorescence (obtained after fura 2-quenching with 8 mmol/L MnCl2). Diameters were simultaneously recorded by videomicroscopy at wavelengths>610 nm to avoid interference with fura 2-measurements.
Additionally, dose-response curves for SNP were obtained in arteries preconstricted by 0.3 μmmol/L NE under control conditions, in the presence of the Rho kinase inhibitor Y27632 (1 μmol/L) or in N19RhoA-transfected arteries.
(§2) Dilations are expressed as “% of maximum dilation”=[(diaVD−diaNE)/(diamax−diaNE)]×100, with diaVD and diaNE representing steady state diameters 2 min after administration of […] and diamax being the maximal diameter obtained in Ca^2+-free 1 mmol/L EGTA-containing MOPS buffer.

[2] = test system: depolarized resistance arteries; experiment: Apparent Ca2+-sensitivity of depolarized resistance arteries (120 mmol/L K+, Ca2+ex 0-3 mmol/L); type: cell-based, hamsters; conditions: for effect on NO (SNP)-induced Ca^2+-desensitization: 10 μmol/L SNP, ODQ 1 μmol/L, calyculin A 120 nmol/L, S1P 10 nmol/L or RhoA^Ala-188 transfection
Source text: as §1
To transfect plasmids containing C3 transferase or the respective mutated RhoA sequences (N19RhoA, RhoA^Ala-188) into VSMCs, arteries were incubated for 18-21 h in a artery culture system (Bolz et al., 2000, supra) with culture medium containing antibiotics, the transfectant Effectene® (16 μl/ml) and 5 μg of the respective plasmid. Unspecific effects of the transfection procedure were assessed by comparing vascular responses of non-transfected RA and arteries transfected with green fluorescent protein (GFP).
The apparent Ca^2+-sensitivity of the arteries was assessed by stepwise increasing the extracellular Ca^2+ concentration (Ca^2+, 0-3 mmol/L) around the arteries kept in depolarizing solution (120 mmol/L K^+). Depolarization-dependent opening of voltage-gated calcium channels allowed increases in Ca^2+ ex to be reproducibly followed by increases in VSMC [Ca^2+]i (Bolz et al., 2000, supra). The Ca^2+-sensitivity was assessed under control conditions, in the presence of SNP and in the combined presence of SNP and the respective modulating substance or protein (ODQ, calyculin A, S1P, RhoA^Ala-188).

[3] = test system: isolated resistance arteries; experiment: Resting tone in isolated, transfected resistance arteries; type: cell-based, syrian hamsters; conditions: 10 nmol/L
Source text: The preparation of the vessels, the technique of calcium and diameter measurements (Bolz, S. S., de Wit, C., Pohl, U. (1999) Br J Pharmacol 128:124-134) as well as the artery culture and transfection method (Bolz, S. S., Pieperhoff, S., de Wit, C. et al. (2000) Am J Physiol Heart Circ Physiol 279:H1434-H1439) were previously described in more detail. […]
After termination of the culture period resistance arteries were washed with MOPS-buffered salt solution and transferred to an inverted microscope. […] In all 116 arteries included in the study, smooth muscle and endothelial function was assessed by testing all resistance arteries for their constrictor response to norepinephrine (NE 0.3 μmol/L) and their dilator response to acetylcholine (ACh, 1 μmol/L). […]
Tone was calculated as % of maximal diameter [tone(% of diamax)=((diamax−diarest)/diamax)×100] that was determined at the end of every experiment in Ca^2+-free solution under stimulation with 1 μmol/L ACh.

[4] = test system: MYPT1; experiment: Translocation of MLCP myosin-binding subunit MYPT1 (immunofluorescence, western blot); type: cell-based, hamster
Description: (§3) Arteries were fixed with 3.7% formaldehyde, permeabilized with 0.3% Triton X-100, blocked with 1% BSA and incubated with the primary antibody (MLCP: rabbit anti-mouse, 1:200, Covance; RhoA: mouse monoclonal, 1:200, Santa Cruz Biotechnology). FITC-labelled goat anti-rabbit or donkey anti-mouse (1:200, each) were used as secondary antibodies. Images were obtained using a Zeiss LSM410 confocal microscope equipped with a Kr/Ar laser and a 40×/1.2 W water immersion objective.
Tissue samples of hamster aorta were quick-frozen in liquid nitrogen and homogenized. Cytosolic and particulate fractions were separated by centrifugation of the homogenate at 100.000 g (Beckman Coulter, Optima Max-E). Pellets were resuspended in lysis buffer plus 1% Triton-X 100. Protein-matched samples were electrophoresed by SDS-PAGE (7%), transferred to nitrocellulose membranes (Amersham), and subjected to immunostaining using a polyclonal primary antibody (rabbit anti-mouse, 1:500). An HRP-labelled secondary antibody (goat anti-rabbit, 1:10000, Santa Cruz) was used with ECLplus (Amersham) to visualize the signal.

[5] = test system: RhoA; experiment: RhoA translocation (immunostaining); type: cell-based, hamsters; conditions: 10 nmol/L S1P, 2 min
Description: as §3

[6] = test system: isolated resistance arteries; experiment: Pressure-induced myogenic response (reversal of initial distension), 45 to 110 mmHg; type: cell-based, syrian hamsters
Source text: The preparation of the vessels, the technique of calcium and diameter measurements (Bolz, S. S., de Wit, C., Pohl, U. (1999) Br J Pharmacol 128:124-134) as well as the artery culture and transfection method (Bolz, S. S., Pieperhoff, S., de Wit, C. et al. (2000) Am J Physiol Heart Circ Physiol 279:H1434-H1439) were previously described in more detail. Briefly, segments of small resistance arteries (maximal diameter 213±3 μm, n+116) were excised from the gracilis muscle of female syrian hamsters, cannulated with glass micropipettes and perfused with culture medium at a transmural pressure of 45 mmHg. for selective transfection of smooth muscle cells, 60 μl/mL transfection reagent (Effectene, Qiagen, Germany) and 5 μg of the respective DNA plasmid were added to the organ bath for 20-22 h.
(§4) After termination of the culture period resistance arteries were washed with MOPS-buffered salt solution and transferred to an inverted microscope. Incubation with fura 2 (2 h at 37° C.) from the abluminal side allowed selective determination of smooth muscle Ca^2+ within the vascular wall. Simultaneous measurements of smooth muscle intracellular Ca^2+ and diameter were performed as described previously (Bolz, S. S., de Wit, C., Pohl, U. (1999) supra). In all 116 arteries included in the study, smooth muscle and endothelial function was assessed by testing all resistance arteries for their constrictor response to norepinephrine (NE 0.3 μmol/L) and their dilator response to acetylcholine (ACh, 1 μmol/L). […] Measurements were performed at 37° C.
Myogenic responses were described as % reversal of initial distension (RID) calculated as RID=((diadistended−diatime)/(diadistended−diarest))×100, with diatime being the actual diameter of the artery at a given time point after increase in transmural pressure.
(§5) To compare Ca^2+i and diameter changes over time after application of pressure, a non-linear regression analysis was employed. Briefly, the goodness of the fit to a Gompertz function was calculated for every individual curve at first and then for pooled data sets.

[7] = test system: resistance arteries; experiment: S1P-induced vasoconstriction of resistance arteries; type: cell-based, hamsters; conditions: for effect on S1P-induced constrictions: S1P <1 μmol/L
Source text: as §1
The technique to transfect intact C3 transferase protein using Trans LT was previously described (Bolz et al., 2000, supra).
Changes in diameter and [Ca^2+]i were continuously recorded in 70 vessels from 41 animals. All vessels studied developed spontaneous tone (9.6±1% of maximal diameter). The viability of each vessel was assessed by its constriction to NE (0.3 μmol/L) and a dilation>80% in response to 1 μmol/L ACh.

[8] = test system: smooth muscle Ca^2+; experiment: Pressure-induced increases in smooth muscle Ca2+ (fura 2); type: cell-based, syrian hamsters; conditions: inhibition of RhoA/Rho kinase pathway
Description: as §4, §5

[9] = test system: resistance arteries; experiment: Ca2+-dependent dilations induced by ACh or NS1619; type: cell-based, hamsters
Source text: as §1, §2

[10] = S1P 0.001 μmol/L plus named inhibitor
[11] = S1P 0.01 μmol/L plus named inhibitor
[12] = S1P 0.1 μmol/L plus named inhibitor
[13] = S1P 1 μmol/L plus named inhibitor

## NC[C@H](O)c1ccc(O)c(O)c1 [NE, Norepinephrine]
[1]
  preconstriction level (diameter): 128±2 μm

## O=c1onc2cnc3ccccc3n12 [ODQ]
[2]
  effect on NO (SNP)-induced Ca^2+-desensitization: blocked; also recorded: completely reversed

## CCCCCCCCCCCCC/C=C/[C@@H](O)[C@@H](N)COP(=O)(O)O [S1P, sphingosine-1-phosphate]
[3]
  constriction induced by S1P itself: no significant constrictions
[4]; S1P, 2 min
  translocation of MYPT1 to the smooth muscle cell plasmamembrane: induced a translocation
[2]
  effect on NO (SNP)-induced Ca^2+-desensitization: abolished; also recorded: blocked
[2]; S1P 10 nmol/L, Ca^2+ex 0.25-0.75 mmol/L
  effect of S1P per se on Ca^2+-sensitivity: increased the Ca^2+-sensitivity only in a medium concentration range
[5]
  RhoA localisation after stimulation: translocated to the membrane; also recorded: translocation to the membrane
[1]
  preconstriction level (diameter): 130±10 μm
[1]; SNP 1 μmol/L, preconstriction 1 μmol/L S1P vs 0.3 μmol/L NE
  reduction of SNP-induced dilations after preconstriction with S1P vs NE: 64±8%
[6]; 10 nmol/L S1P
  myogenic response with exogenous S1P: 144±11 % RID
[7]; S1P 0.001 μmol/L
  S1P-induced vasoconstriction, Control: −0.2 ± 0.4 % of diamax
[7]; S1P 0.01 μmol/L
  S1P-induced vasoconstriction, Control: −7.7 ± 2.4 % of diamax
[7]; S1P 0.1 μmol/L
  S1P-induced vasoconstriction, Control: −27.0 ± 3.4 % of diamax
[7]; S1P 1 μmol/L
  S1P-induced vasoconstriction, Control: −45.0 ± 2.0 % of diamax

## C[C@@H](N)[C@H]1CC[C@H](C(=O)Nc2ccncc2)CC1 [Y27632]
[4]; N19RhoA-transfected or Y27632 (1 μmol/L)-pretreated arteries
  S1P-induced MYPT1 translocation after RhoA/Rho kinase inhibition: absent
[1]; NE 0.3 μmol/L-preconstricted, Y27632 1 μmol/L or N19RhoA overexpression
  effect on NO-induced dilations: significantly augmented
[1]; NE 0.3 μmol/L, Y27632 1 μmol/L
  diameter at NE-induced tone: 115±5 μm
[1]; Y27632 1 μmol/L
  resting diameter: 195±18 μm
[6]; 10 nmol/L S1P plus Rho kinase inhibitor
  S1P-augmented myogenic response after blocker: 3±1 % RID
[6]; pressure 45 to 110 mmHg, steady state after 4 min
  myogenic response, reversal of initial distension (RID): 1±2 % RID
[8]
  pressure-induced increases in Ca^2+: 19±3%
[7]; [10]
  S1P-induced vasoconstriction after inhibition of RhoA or Rho kinase: 0.1 ± 0.4 % of diamax
[7]; [11]
  S1P-induced vasoconstriction after inhibition of RhoA or Rho kinase: −0.4 ± 0.2 % of diamax
[7]; [12]
  S1P-induced vasoconstriction after inhibition of RhoA or Rho kinase: −3.4 ± 1.8 % of diamax
[7]; [13]
  S1P-induced vasoconstriction after inhibition of RhoA or Rho kinase: −20.0 ± 7.2 % of diamax
[7]
  effect on S1P-induced constrictions: abolished

## COC[C@@H]([C@H](O)[C@H](O)C(=O)NCC[C@H](C)c1nc(/C=C/C[C@@H]2O[C@]3(C[C@@H](O)[C@@H]2C)O[C@H]([C@H](C[C@H](O)[C@H](C)[C@H](O)[C@H](C)/C=C(C)/C(C)=C/C=C/C(C)=C\C#N)OC)[C@H](OP(=O)(O)O)C3(C)C)co1)N(C)C [calyculin A]
[2]
  effect on NO (SNP)-induced Ca^2+-desensitization: reversed
[2]; listed as Calyculin A
  effect on NO (SNP)-induced Ca^2+-desensitization: almost abolished

## C3 transferase
[2]; C3 transferase-transfected arteries
  Ca^2+/diameter curve (Ca^2+-sensitivity of the contractile apparatus): significantly shifted to the right; also recorded: significantly desensitized
[7]; [10]
  S1P-induced vasoconstriction after inhibition of RhoA or Rho kinase: 0.7 ± 0.3 % of diamax
[7]; [11]
  S1P-induced vasoconstriction after inhibition of RhoA or Rho kinase: 0.5 ± 0.6 % of diamax
[7]; [12]
  S1P-induced vasoconstriction after inhibition of RhoA or Rho kinase: −2.8 ± 0.7 % of diamax
[7]; [13]
  S1P-induced vasoconstriction after inhibition of RhoA or Rho kinase: −18.1 ± 2.9 % of diamax
[7]
  effect on S1P-induced constrictions: abolished

## charybdotoxin
[9]
  effect on dilations by ACh (+L-NA/indomethacin) and NS1619: abolished
